Reference: BigSolDB 2.1

CCc1nnc(NC(=O)c2ccc([N+](=O)[O-])cc2)s1
solubility (mole fraction)
Details | 288.15 K | 293.15 K | 298.15 K | 303.15 K | 308.15 K | 313.15 K | 318.15 K
in ethanol | 2.81e-05 | 3.17e-05 | 3.91e-05 | 4.87e-05 | 5.95e-05 | 7.34e-05 | 8.87e-05
in n-hexane | 6.2e-06 | 7.4e-06 | 9.5e-06 | 1.19e-05 | 1.44e-05 | 1.79e-05 | 2.11e-05
in n-octanol | 4.34e-05 | 5.22e-05 | 6.52e-05 | 8.06e-05 | 9.61e-05 | 0.000118 | 0.00014
